The values that follow come from PubChem BioAssay AID179 (DTP/NCI, 2004).

The EC50 is the concentration that produces a half-maximal response. As usually defined, the IC50 is the concentration that gives 50% inhibition.

The subject of this test is CEM cells HIV-1 protection, formazan growth assay. Kind of test: NCI AIDS Antiviral Assay. Particulars: for IC50: measured here: growth of uninfected CEM cells. The gist of the method:
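Human CEM cells, uninfected and HIV-1-infected, exposed to five drug concentrations; growth measured by soluble formazan assay and scored as percent protection from infection, with protecting compounds retested.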

Where “and” joins values, the source holds several entries; their conditions need not be identical. Identical values can stand only once. Calls of active or inactive are those of the source.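 The calls were made as follows: active = compounds giving half or more protection of infected cells from virus-caused growth loss, again on retest; inactive = the rest.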 Where a SMILES comes first, the peptide text is derived from it. The star is where a group is joined. Cbz = O=C(OCc1ccccc1)*

For `CC1(C)CC(=O)c2c(nc3ccc4ccccc4c3c2-c2ccc(NC(=O)CCCCCCCCC(=O)Nc3ccc(-c4c5c(nc6ccc7ccccc7c46)CC(C)(C)CC5=O)cc3)cc2)C1`, the EC50 is more than 100 µM and the IC50 is more than 100 µM.

Take `Cc1ccnc2c1C(=O)C(=O)C=C2N1CCC(C)CC1`: the outcome was inactive.

Take `CCCCOC(=O)C1CC2OC2CC1C(=O)OCCOCCOC(=O)C1CC2OC2CC1C(=O)OCCCC` (stereo unspecified): the EC50 is more than 200 µM and the IC50 turned out to be 51.3 µM.

Consider `CC(C)(C)[Si](C)(C)OCCC1CC2(S(=O)(=O)C3=CC=C=C=C3)ON1CC2S(=O)(=O)c1ccccc1` (stereo unspecified), for which the EC50 is more than 35.5 µM and the IC50 was more than 35.5 µM.

In the case of `Nc1ccc(/C=C\c2ccc(N)cc2S(=O)(=O)O)c(S(=O)(=O)O)c1`, the EC50 was more than 200 µM and the IC50 is more than 200 µM.

For `CC(=N\N=C\c1ccccn1)/C(C)=N/N=C/c1ccccn1`, the EC50 is more than 100 µM and the IC50 was 14.1 µM.

As to `N.N.N.N.O=S([O-])[O-].[Co+3].[N-]=[N+]=[N-]`, the outcome was inactive.

Regarding `CCCCCCCCCCCCCCCCCCSCC12c3ccccc3C(c3ccccc31)C(COS(=O)(=O)O)C2COS(=O)(=O)O` (stereo unspecified), the EC50 is more than 100 µM and the IC50 was determined as 64.6 µM.

For the molecule `COc1cc(NCc2ccc3nc(N)nc(N)c3c2C)cc(OC)c1OC` (tested in a mixture with another compound), the EC50 was more than 4.47 µM and the IC50 worked out at 0.00363 µM.

As to `O=c1c2cc(S(=O)(=O)Nc3ccc(Cl)cc3Cl)ccc2ncn1NS(=O)(=O)c1cccc2ccccc12`, the EC50 is more than 200 µM and the IC50 was determined as 33.1 µM.

As for `CCCc1cc(=O)oc2c3c(c4c(c12)OC(C)(C)C=C4)OC(C)[C@H](C)[C@@H]3O` (stereo partly specified), the half-maximal effective concentration (EC50) was 5.01 µM and the IC50 turned out to be 13.8 µM.

With `COC(=O)c1ccccc1NC(=O)C(=O)Cc1nc2c3c(ccc2[nH]c1=O)C(=O)c1ccccc1C3=O`, the EC50 was more than 20.4 µM and the IC50 was more than 20.4 µM.

As to `COc1nn(Cc2ccccc2F)c2ccc([N+](=O)[O-])cc12`, the EC50 is more than 200 µM and the IC50 came to 50.1 µM.

For the molecule `COc1cccc2c1C(=O)c1c(O)c3c(c(O)c1C2=O)C[C@@](O)(C(=O)CO)C[C@@H]3OC1CC(N)C(O)C(C)O1` (stereo partly specified), the EC50 was more than 2.51 µM.

Take `CS(=O)(=O)N1CC(CCl)c2ccc(O)cc21` (stereo unspecified): the EC50 is more than 200 µM and the IC50 came out at 1.86 µM.

On to `CCCCc1ccc(N=C(N)N)cc1`, for which the EC50 was more than 200 µM and the half-inhibitory concentration (IC50) is 28.8 µM.

On to `O=C1CSC(c2ccccc2O)N1c1ccc(Oc2ccc(Cl)cc2)c(Cl)c1` (stereo unspecified), for which the EC50 was more than 100 µM and the IC50 came to 24 µM.

On to `CC1=N/C(=C\c2cccc(F)c2)C(=O)O1`, for which the EC50 is more than 126 µM and the IC50 is more than 126 µM.

`CCOCN1COCN(C)C1=O`: the EC50 is more than 1450 µM and the IC50 is more than 1450 µM.

As for `CN(C)c1ccccc1CC(c1c[nH]c2ccccc12)c1c[nH]c2ccccc12`, the EC50 is more than 19.1 µM and the IC50 is more than 19.1 µM.

As for `COc1ccc2nc3c([N+](=O)[O-])ccc4c3c(c2c1)NCCN4C`, the EC50 was more than 100 µM and the IC50 was 0.513 µM.

For the molecule `CCN=Cc1c(O)c(O)c(C(C)C)c2cc(C)c(-c3c(C)cc4c(C(C)C)c(O)c(O)c(C=NCC)c4c3O)c(O)c12`, the result was inactive.

Consider `CC12CCC(C=C1N1CCCCC1)C(C)(C)O2` (stereo unspecified), for which the EC50 was more than 1070 µM and the IC50 is more than 1070 µM.

As to `COc1cc(C2c3cc4c(cc3OC(Nc3ccccc3)C2C)OCO4)cc(OC)c1O` (stereo unspecified), the outcome was inactive.

As for `CCCCCCCCCCOCC(COCCOCC(COCCCCCCCCCC)OCCCS(=O)(=O)O)OCCCS(=O)(=O)O` (stereo unspecified), the EC50 is more than 204 µM and the IC50 was found to be 107 µM.

With `CCOC(=O)/C(=C/c1ccc([N+](=O)[O-])cc1)N(CC)CC`, the EC50 was more than 324 µM and the IC50 is more than 324 µM.

With `CCOC(=O)C1C(c2ccccc2)C(C(=O)OCC)C(O)(C(F)(F)F)OC1(O)C(F)(F)F` (stereo unspecified), the result was inactive.

`Cc1ccc(C2NC(=O)N3C(c4ccc(C)cc4)NC(=O)N23)cc1` (stereo unspecified): the EC50 was more than 200 µM and the IC50 turned out to be 30.2 µM.

With `CC(=O)Oc1cccc2c(/C=N/NC(N)=S)ncc(C)c12`, the EC50 was more than 200 µM and the IC50 stood at 1.23 µM.

Take `Cc1ccc2nc(C(C)C)c(=O)[nH]c2c1`: the EC50 was more than 200 µM and the IC50 was more than 200 µM.

Turning to `Nc1ccn(CC(=O)NCCCO)c(=O)n1`, the EC50 was more than 200 µM and the IC50 was more than 200 µM.

With `Cc1cn(C2CC(O)C(CO[Si](C)(C)C(C)(C)C)OC2OC(C)C)c(=O)[nH]c1=O` (stereo unspecified), the EC50 is more than 200 µM and the IC50 worked out at 37.2 µM.

Regarding `Oc1[nH]c2ccccc2c1N=NC1=NCCCCN1`, the EC50 is more than 200 µM and the IC50 was more than 200 µM.

For the molecule `COc1ccc(NC(=O)CC(=O)N2N=C(N3c4ccccc4Sc4ccccc43)CC2c2ccccc2)cc1` (stereo unspecified), the result was inactive.

On to `Nc1nnc(-c2ccccc2S)o1`, for which the EC50 is more than 63.1 µM and the IC50 was 26.9 µM.

For `COC12C=CC(CC1)C(C)(C)C2=O` (stereo unspecified), the EC50 was more than 200 µM and the IC50 was more than 200 µM.

Turning to `Cn1cc2c(c1-c1ccccc1)[n+](=O)c1ccccc1n2[O-]`, the EC50 was 5.13 µM and the IC50 came to 32.4 µM.

Turning to `CCOC(=O)c1cn2c([nH]c3ccccc32)c(C#N)c1=O`, the EC50 is more than 47.9 µM and the IC50 is more than 47.9 µM.

`O=C(O)c1ccc(-c2c3ccc(=O)cc-3oc3cc(O)ccc23)cc1` registered an EC50 of more than 200 µM and a half-maximal inhibitory concentration (IC50) of 107 µM.

On to `CN(C)CCNc1nc2c(no[n+]2[O-])c2ccccc12`, for which the EC50 was more than 200 µM and the IC50 turned out to be 9.33 µM.

Consider `C1C2CC3C1C1CN3C21` (stereo unspecified), for which the EC50 was more than 724 µM and the IC50 is more than 724 µM.

`Oc1ccc(/C=C/c2cc(O)cc3c2C(c2cc(O)cc4c2C(c2cc(O)cc(O)c2)C(c2ccc(O)cc2)O4)C(c2ccc(O)cc2)O3)cc1` (stereo unspecified): the EC50 is more than 20.9 µM and the IC50 came to 10.5 µM.

In the case of `CC=C=CCN(C)Cc1ccccc1`, the EC50 is more than 324 µM and the IC50 was more than 324 µM.

As to `N#C/C(=C\NC(=S)Nc1ccc(S(=O)(=O)Nc2ccccn2)cc1)C(N)=O`, the EC50 was more than 200 µM and the IC50 was more than 200 µM.

Take `NNC(=O)C(=O)N/N=C1\CCC(=O)CC1C(=O)CCC(=O)Nc1ccc(Cl)cc1` (stereo unspecified): the EC50 was more than 32.4 µM and the IC50 was more than 32.4 µM.

`COc1ccc(C2=NN(c3nsc4ccccc34)C(=O)CC2)cc1`: the EC50 is more than 40.7 µM and the IC50 was more than 40.7 µM.

`CCCCCC1CC=CC(NC(=O)OCc2ccccc2)C1/C=C/C(=O)CCCCCOC(=O)c1ccc(Br)cc1` (stereo unspecified): the outcome was inactive.

Turning to `C=C1CC(c2ccc(S(=O)(=O)N3CCOCC3)cc2)OC1=O` (stereo unspecified), the EC50 was more than 200 µM and the IC50 worked out at 2.82 µM.

For the molecule `CC(C)CCCC(C)[C@H]1CC[C@H]2[C@@H]3CC[C@H]4C[C@@H](CCC=C(c5cc(Cl)c(OCc6ccccc6[N+](=O)[O-])c(C(=O)O)c5)c5cc(Cl)c(OCc6ccccc6[N+](=O)[O-])c(C(=O)O)c5)CC[C@]4(C)[C@H]3CC[C@]12C` (stereo partly specified), the EC50 is > 200 µM and 120 µM; the outcome was inactive; the IC50 is > 200 µM and 166 µM.

As to `O=C(CCCC(=O)Nc1ccc(Cl)cc1Cl)CC(=O)c1ccc2ccccc2c1`, the EC50 is more than 417 µM and the IC50 is more than 417 µM.

Take `CC(C)Oc1c(-c2ccc(F)cc2)c(O)c2c3c1oc(=O)n3C=CC2C` (stereo unspecified): the EC50 was 13.2 µM and the IC50 turned out to be 14.8 µM.

For `Cc1cnc(SCCN(C)C)nc1-c1ccc(-c2nc(SCCN(C)C)ncc2C)s1`, the EC50 is more than 13.5 µM and the IC50 is 12.6 µM.

Take `N#Cc1cccc(-n2[nH]c(=O)ccc2=O)c1`: the EC50 was more than 200 µM and the IC50 is more than 200 µM.

In the case of `O=[N+]([O-])c1cccc2nc3ccccc3c(NCCNCCO)c12`, the EC50 was more than 2 µM and the IC50 was 0.0316 µM.

Regarding `CCCCN(CCCC)C(=NCc1ccccc1)NC#N`, the EC50 was more than 100 µM and the IC50 is 17.4 µM.

For the molecule `COC(=O)CNC(=O)C(CC(C)C)NC(=O)C(CC(C)C)NC(=O)C(C)NC(=O)OCc1ccccc1` (stereo unspecified) (Cbz-ALLG-OMe; configuration not given here), the outcome was inactive.

Take `C[n+]1cn(-c2nc3ccccc3nc2[N-]S(=O)(=O)c2ccccc2)c2ccccc21`: the EC50 is more than 200 µM and the IC50 was more than 200 µM.

As to `CCOC(=O)C(=O)Nc1c(C)cccc1C(C)(C)C`, the EC50 was more than 135 µM and the IC50 is more than 135 µM.

Consider `S=C(NNC1=NCCCCN1)Nc1ccc(Cl)cc1`, for which the EC50 was more than 200 µM and the IC50 worked out at 18.6 µM.

As to `CCCCc1ccc(OC2OC(CO)C(O)C(O)C2O)cc1` (stereo unspecified), the EC50 was more than 288 µM.

In the case of `COC(=O)C1=C(C(=O)OC)C2C=CC1C1C(Cl)=C(Cl)C21` (stereo unspecified), the outcome was inactive.

Regarding `N#CCCN1C(=O)CCC2(CCC(=O)N(CCC#N)C2=O)C1=O`, the EC50 was more than 794 µM and the IC50 was more than 794 µM.

As for `Cc1nc(Nc2ccccc2Cl)sc1C(=O)CC(=O)C(=O)Nc1c(Cl)cccc1Cl`, the EC50 is more than 200 µM and the IC50 turned out to be 57.5 µM.

As to `Cc1cc2nc3n[nH]c(N)c3nc2cc1C`, the EC50 was more than 200 µM and the IC50 was more than 200 µM.

For the molecule `COc1cc(C2C(Cl)C(=O)N2n2cnc3ccccc3c2=O)cc(OC)c1OC` (stereo unspecified), the EC50 was more than 6.61 µM and the IC50 is more than 6.61 µM.

Consider `CC(=O)N1CN2C(=O)CCC2c2cc(C)ccc21` (stereo unspecified), for which the result was inactive.

Regarding `CCCCCCCC(=O)OC[C@@H](C[As](=O)(O)O)OC(=O)CCCCCCC`, the EC50 is more than 200 µM and the IC50 came to 9.33 µM.

Turning to `S=C1Cc2[nH]c(=S)sc(=S)c2C(=S)N1`, the EC50 is more than 64.6 µM and the 50% inhibitory concentration (IC50) is 57.5 µM.

For `CN(C)c1ccc(/C=C2\CCc3ccccc3C2=O)cc1`, the EC50 is more than 9.77 µM and the IC50 amounted to 5.5 µM.

Consider `Cc1ccc(S(=O)(=O)[C@@H](Cl)[C@H]2N=C(Cl)NN=C2c2ccccc2)cc1`, for which the EC50 is more than 200 µM and the IC50 stood at 37.2 µM.

Regarding `CN=c1ssc(=S)n1C(C)C`, the EC50 is more than 200 µM and the IC50 was found to be 16.2 µM.
